Common to all, as to assay type: ADME, organism-based
Data set [1] can be described thus: AUC(infinity) in BALB/c mouse at 1 mg/kg, iv. The arrangement: time infinity, dose 1 mg/kg, route intravenous. The settings on record: plasma.
Data set [2] is described as follows: Volume of distribution at steady state in BALB/c mouse at 1 mg/kg, iv. Also on record: dose 1 mg/kg, route intravenous. Conditions: in vivo, read-out: Vdss.
Data set [3] can be described thus: Tmax in BALB/c mouse at 5 mg/kg, po. Also on record: dose 5 mg/kg, route oral. The settings on record: in vivo.
Data set [4] in a line: Cmax in BALB/c mouse at 1 mg/kg, iv. Conditions: in vivo. The arrangement: dose 1 mg/kg, route intravenous.
Data set [5] in a line: AUC(infinity) in BALB/c mouse at 5 mg/kg, po. The arrangement: time infinity, dose 5 mg/kg, route oral. The settings on record: plasma.
The nature of data set [6]: Tmax in BALB/c mouse at 1 mg/kg, iv. Also on record: dose 1 mg/kg, route intravenous. The settings on record: in vivo.
The nature of data set [7]: Cmax in BALB/c mouse at 5 mg/kg, po. The settings on record: in vivo. Also on record: dose 5 mg/kg, route oral.
Data set [8] in a line: Oral bioavailability in BALB/c mouse at 5 mg/kg. The settings on record: in vivo.

The source of these data is ChEMBL document CHEMBL2390838, “Structure-based identification of ureas as novel nicotinamide phosphoribosyltransferase (Nampt) inhibitors” (J Med Chem, 2013).

The term AUC(0-inf) denotes the area under the concentration-time curve extrapolated to infinity. One may read the Tmax as the time from dosing to the highest level. The term Cmax denotes the highest concentration seen after dosing. A word on the bioavailability: it is the share of a dose that reaches the circulation, judged against a reference dose that is usually intravenous.

Turning to `O=C(NCc1cccnc1)Nc1ccc(S(=O)(=O)N2CC3CCC(C2)O3)cc1`, the AUC(0-inf) in data set [1] worked out at 0.92 µM·h; in data set [5], 1.4 µM·h. In addition, the Vd in data set [2] came out at 1.1 L/kg. Besides, the time to peak (Tmax) in data set [3] worked out at 30 min; in data set [6], 4.8 min. For the same compound, the Cmax in data set [4] was 2700 nM; in data set [7] it was 1100 nM. For the same compound, the bioavailability in data set [8] worked out at 26%.
